Measurements: article doi:10.1101/2024.08.19.608619, “Discovery of potent SARS-CoV-2 nsp3 macrodomain inhibitors uncovers lack of translation to cellular antiviral response” (bioRxiv, 2024)
≈ marks a conversion by molar mass, not a printed value. Where “and” joins values, the source holds several entries; their conditions need not be identical. Equal values may be shown once.

Columns and labels:
[1] = Hepatic microsomal stability, MLM; assay type: in vitro ADME
[2] = Permeability Papp (AB) MDR1/MDCKII; conditions: In vitro MDR1-MDCKII permeability; for papp_a_to_b_mean: A to B; for perc_recovery_a_to_b_mean: recovery A to B
[3] = In vitro kinetic solubility; conditions: In vitro kinetic solubility, ph 7.4
[4] = Hepatic microsomal stability, HLM; assay type: in vitro ADME, human; conditions: In vitro human liver microsomal stability; for perc_remaining_no_cofactor: no cofactor
LogD = conditions: pH 7.4; In vitro LogD
[5] = In vitro mouse liver microsomal stability
[6] = In vitro mouse liver microsomal stability, no cofactor
[7] = In vitro mouse liver microsomal stability; no cofactor

SMILES | clint [1, 5] | perc_remaining [1, 5] | t_half [1, 5] | perc_remaining_no_cofactor [1, 6] [%] | papp_a_to_b_mean ([2]; mean) | perc_recovery_a_to_b_mean ([2]; mean) | solubility_mean [3] | clint [4] | perc_remaining [4] | t_half [4] | perc_remaining_no_cofactor [4] | logd (LogD) | papp_a_to_b_mean ([2]; no inhibitor) [×10⁻⁶ cm/s] | perc_recovery_a_to_b_mean ([2]; no inhibitor) [%] | perc_remaining_no_cofactor [1, 7] [%]
CC(C(=O)O)C(NC(=O)c1ncnc2[nH]ccc12)c1ccc(Br)cc1 (mixture of isomers) [ASAP-0008445] | 4.0 µL/min/mg | 94.0% | 433.2 min | 109.0 | 1.4 ×10⁻⁶ cm/s | 93.4% | 386 µM | 5.0 µL/min/mg | 103.0% | 338.5 min | 110.0% | 0.5 |  |  | 
COc1ccc(C(NC(=O)c2ncnc3[nH]ccc23)C(C)c2nnn[nH]2)cc1 (mixture of isomers) [ASAP-0010744] | 1.0 µL/min/mg | 99.0% | 2882.2 min | 92.0 |  |  | ≥ 400 µM | 2.0 µL/min/mg | 92.0% | 798.7 min | 103.0% | 0.0 | 1.13 | 93.6 | 
COc1ccc2c(c1)CCN(c1ncnc3[nH]ccc13)[C@H]2C(C)C (racemic) [ASAP-0000502] | 321.0 µL/min/mg | 1.0% | 5.2 min |  | 7.0 ×10⁻⁶ cm/s | 32.0% | 14 µM (≈ 4.51 µg/mL) | 60.0 µL/min/mg | 38.0% | 27.8 min | 103.0% | 4.33 |  |  | 83.0
COc1ccc([C@H](CC(=O)O)NC(=O)c2ncnc3[nH]ccc23)cc1 (racemic) [ASAP-0000591] | 2.0 µL/min/mg | 94.0% | 686.4 min |  | 1.7 ×10⁻⁶ cm/s | 90.0% | ≥ 400 µM | 7.0 µL/min/mg | 87.0% | 240.4 min | 88.0% | -0.38 |  |  | 96.0
O=C(Nc1cccc2c(C(=O)N[C@H]3c4ccccc4C[C@H]3C(=O)O)c[nH]c12)NC1CC1 (racemic) [ASAP-0000627] | 4.0 µL/min/mg | 95.0% | 453.6 min |  | 1.8 ×10⁻⁶ cm/s | 81.0% | ≥ 400 µM | 6.0 µL/min/mg | 88.0% | 279.8 min | 86.0% | -0.05 |  |  | 105.0
CC(C)[C@H](Nc1ncnc2[nH]cc(C(N)=O)c12)c1ccc2c(c1)OCCO2 (racemic) [ASAP-0008399] | 142.0 µL/min/mg | 9.0% | 11.7 min | 98.0 | 11.1 ×10⁻⁶ cm/s | 90.0% | 375 µM (≈ 138 µg/mL) | 143.0 µL/min/mg | 9.0% | 11.7 min | 110.0% | 3.2 |  |  | 
CC(C)[C@H](Nc1ncnc2[nH]c(-c3cnn(C)c3C#N)cc12)c1ccc2c(c1)NC(=O)CO2 (racemic) [ASAP-0008576] | 177.0 µL/min/mg | 6.0% | 9.4 min | 97.0 | 3.07 ×10⁻⁶ cm/s | 80.1% | 69 µM (≈ 30.5 µg/mL) | 100.0 µL/min/mg | 18.0% | 16.6 min | 93.0% | 4.1 |  |  | 
CC(C)(C)[C@H](Nc1ncnc2[nH]c(-c3cnn(CC(N)=O)c3)cc12)c1ccc2c(c1)OCCO2 (racemic) [ASAP-0008581] | 47.0 µL/min/mg | 46.0% | 35.2 min | 107.0 | 1.66 ×10⁻⁶ cm/s | 94.7% | 195 µM (≈ 90 µg/mL) | 133.0 µL/min/mg | 11.0% | 12.6 min | 87.0% | 3.2 |  |  | 
CC(C)[C@H](Nc1ncnc2[nH]c(-c3cnn(CC(N)=O)c3)cc12)c1ccc2c(c1)NC(=O)CO2 (racemic) [ASAP-0008621] | 11.0 µL/min/mg | 84.0% | 155.8 min | 102.0 | 1.36 ×10⁻⁶ cm/s | 98.0% | 25 µM (≈ 11.5 µg/mL) | 17.0 µL/min/mg | 73.0% | 99.2 min | 91.0% | 2.5 |  |  | 
CNC(=O)c1c[nH]c2ncnc(N[C@H](c3ccc4c(c3)NC(=O)CO4)C(C)C)c12 (racemic) [ASAP-0008637] | 113.0 µL/min/mg | 16.0% | 14.8 min | 95.0 | 4.26 ×10⁻⁶ cm/s | 97.4% | 28 µM (≈ 11 µg/mL) | 86.0 µL/min/mg | 23.0% | 19.5 min | 98.0% | 3.2 |  |  | 
CNC(=O)c1c[nH]c2ncnc(N[C@H](c3ccc4c(c3)S(=O)(=O)CCC4)C(C)C)c12 (racemic) [ASAP-0008641] | 192.0 µL/min/mg | 3.0% | 8.7 min | 92.0 | 2.23 ×10⁻⁶ cm/s | 79.1% | 390 µM (≈ 167 µg/mL) | 131.0 µL/min/mg | 11.0% | 12.8 min | 104.0% | 2.5 |  |  | 
Cn1ncc(-c2cc3c(N[C@H](c4ccc5c(n4)OCCO5)C(C)(C)C)ncnc3[nH]2)c1C#N (racemic) [ASAP-0008645] | 188.0 µL/min/mg and 209.0 µL/min/mg | 5.0% and 4.0% | 8.9 min and 8.0 min | 106.0 | 9.87 ×10⁻⁶ cm/s and 13.5 ×10⁻⁶ cm/s | 73.4% and 58.4% | 25 µM and 24 µM | 70.0 µL/min/mg and 81.0 µL/min/mg | 30.0% and 27.0% | 23.9 min and 20.6 min | 91.0% and 108.0% |  |  |  | 101.0
CC(C)[C@H](Nc1ncnc2[nH]cc(C(=O)NC3CC3)c12)c1ccc2c(c1)S(=O)(=O)CCC2 (racemic) [ASAP-0008647] | 234.0 µL/min/mg | 2.0% | 7.2 min | 101.0 | 2.46 ×10⁻⁶ cm/s | 73.4% | 257 µM (≈ 117 µg/mL) | 29.0 µL/min/mg | 57.0% | 57.0 min | 90.0% | 3.1 |  |  | 
